Experimental data taken from US20040265341A1, “Prevention of uveitis” (Kings College London, priority 2003, published 2004).
Read-outs that look alike come from different tables or passages of the source.

Key:
[1] = tested on: uveitis; experiment: Prevention of experimental uveitis by oral administration in the rat uveitis model; type: in vivo; conditions: oral administration to experimental animals; conjugate vs peptide alone p<0.0001
[2] = tested on: PBMC; type: cell-based, human
[3] = tested on: PBMC; type: cell-based, human; conditions: for concentration of IFN-γ: relapsed group
[4] = tested on: uveitis; conditions: cited from earlier work
[5] = before tolerising regime, 3 patients with relapsing uveitis

In the case of QPHDLGKVGEVIVTKD [p336-351], the development of uveitis [1] is reported as 65.8%, the “development of uveitis (animals with uveitis / total)” value [1] is reported as 48/73 and the “stimulation index (SI), individual patients” value [2, 5] is reported as > 2. The “stimulation index (SI), mean±sem” value [2, 5] was 4.1±0.8, the “stimulation index (SI), mean±sem” value ([2]; before tolerising regime, 5 patients in whom uveitis was prevented) was 1.25±0.1 and the “stimulation index (SI), mean” value ([2]; prevented group, 3 months after tolerising regime started, immunosuppressive drugs tailed off) was 2.3±0.6. The “stimulation index (SI), mean” value ([2]; relapsing group, 1-2 months after tolerising regime initiated, immunosuppressive doses decreased) was 23.2 (±14.8), the “production of IFN-γ” value ([3]; patients in whom uveitis was prevented, before and 3 months after immunosuppressive drugs withdrawn) was “negligible” and the TNF-α concentrations ([3]; protected patients) was “negligible”. The “concentration of IFN-γ” value ([3]; 1-2 months after tolerisation initiated, unstimulated 1665±1111 pg/ml) was 4723 (±2639) pg/ml, the “concentration of IFN-γ” value ([3]; before tolerisation, unstimulated 504±411 pg/ml) was 758 ± 636 pg/mL and the TNF-α concentrations ([3]; relapsing patients, mostly 1-2 months after tolerisation) was “increased levels”. For the same sequence, the induction of uveitis ([4]; Lewis rats, subcutaneously with an adjuvant, Uchio et al 1998) was “uveitis can be induced”, the “induction of uveitis or tolerance” value ([4]; oral or nasal administration, Hu et al 1998) was “induced uveitis instead of tolerance” and the “uveitogenicity when administered to rats” value ([4]; rats, Stanford et al 1994) was “most effective”.
